# Assay results published in patent publication US20120283296A1, “PYRROLOPYRAZOLES FOR TREATING CNS DISORDERS” (aFRAXis, Inc., priority 2009, published 2012).
# Like-named read-outs stand apart in the source and are kept apart here.
# Experiments:
# Test in all cases: Competitive binding (test PAK inhibitor affinity) assay, phage-displayed kinase vs immobilized staurosporine
# PAK1 = PAK1 (Homo sapiens, UniProt Q13153)
# PAK4 = PAK4 (Homo sapiens, UniProt O96013)
# PAK6 = PAK6 (Homo sapiens, UniProt Q9NQU5)
# PAK7 = PAK7 (Homo sapiens, UniProt Q9P286)
# PAK2 = PAK2 (Homo sapiens, UniProt Q13177)
# Chain of PAK2 (Q13177 whole entry): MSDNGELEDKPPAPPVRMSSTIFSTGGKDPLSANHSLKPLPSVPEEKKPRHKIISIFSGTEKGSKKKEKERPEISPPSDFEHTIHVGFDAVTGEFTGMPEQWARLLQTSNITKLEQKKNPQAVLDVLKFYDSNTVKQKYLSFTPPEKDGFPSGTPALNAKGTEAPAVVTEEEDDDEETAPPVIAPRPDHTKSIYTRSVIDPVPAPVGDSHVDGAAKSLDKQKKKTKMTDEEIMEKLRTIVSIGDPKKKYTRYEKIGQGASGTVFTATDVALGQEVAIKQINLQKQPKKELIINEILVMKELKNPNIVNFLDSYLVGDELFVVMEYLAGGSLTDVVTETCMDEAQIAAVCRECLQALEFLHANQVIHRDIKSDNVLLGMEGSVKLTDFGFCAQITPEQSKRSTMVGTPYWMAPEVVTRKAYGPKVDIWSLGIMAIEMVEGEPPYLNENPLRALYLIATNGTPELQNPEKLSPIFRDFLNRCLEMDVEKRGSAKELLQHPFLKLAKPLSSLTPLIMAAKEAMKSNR
# Chain of PAK6 (Q9NQU5 whole entry): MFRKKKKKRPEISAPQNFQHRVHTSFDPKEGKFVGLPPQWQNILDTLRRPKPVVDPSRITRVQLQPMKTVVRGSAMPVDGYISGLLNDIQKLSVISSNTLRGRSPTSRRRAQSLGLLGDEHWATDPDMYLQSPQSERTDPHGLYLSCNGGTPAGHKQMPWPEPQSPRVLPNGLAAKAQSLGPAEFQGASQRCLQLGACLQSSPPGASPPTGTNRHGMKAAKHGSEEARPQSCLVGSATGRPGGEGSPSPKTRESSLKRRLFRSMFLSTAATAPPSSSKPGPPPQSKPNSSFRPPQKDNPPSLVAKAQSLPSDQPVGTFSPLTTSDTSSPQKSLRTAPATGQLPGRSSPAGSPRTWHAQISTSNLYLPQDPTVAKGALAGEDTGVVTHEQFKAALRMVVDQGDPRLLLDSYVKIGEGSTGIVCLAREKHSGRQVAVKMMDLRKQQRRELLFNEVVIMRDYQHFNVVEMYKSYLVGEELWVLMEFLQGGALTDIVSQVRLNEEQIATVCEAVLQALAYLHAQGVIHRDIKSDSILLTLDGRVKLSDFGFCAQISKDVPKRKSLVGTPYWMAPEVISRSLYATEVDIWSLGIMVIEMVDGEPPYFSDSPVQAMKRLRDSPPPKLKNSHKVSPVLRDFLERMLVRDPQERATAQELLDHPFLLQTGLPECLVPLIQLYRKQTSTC
# Chain of PAK1 (Q13153 whole entry): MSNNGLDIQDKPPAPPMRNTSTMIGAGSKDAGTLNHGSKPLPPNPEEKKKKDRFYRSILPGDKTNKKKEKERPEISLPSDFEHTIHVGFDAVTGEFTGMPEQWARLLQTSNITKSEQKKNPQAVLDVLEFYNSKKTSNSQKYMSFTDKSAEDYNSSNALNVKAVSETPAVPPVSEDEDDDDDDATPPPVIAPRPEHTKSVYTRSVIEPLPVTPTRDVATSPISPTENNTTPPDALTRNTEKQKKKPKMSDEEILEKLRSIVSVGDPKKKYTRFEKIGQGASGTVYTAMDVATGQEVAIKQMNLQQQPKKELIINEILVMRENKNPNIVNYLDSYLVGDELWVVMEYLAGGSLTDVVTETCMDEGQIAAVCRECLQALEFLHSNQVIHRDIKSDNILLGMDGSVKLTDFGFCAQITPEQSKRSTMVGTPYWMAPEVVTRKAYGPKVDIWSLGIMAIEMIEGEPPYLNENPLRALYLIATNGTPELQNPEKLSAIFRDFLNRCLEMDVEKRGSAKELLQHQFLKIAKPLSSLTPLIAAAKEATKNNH
# Chain of PAK4 (O96013 whole entry): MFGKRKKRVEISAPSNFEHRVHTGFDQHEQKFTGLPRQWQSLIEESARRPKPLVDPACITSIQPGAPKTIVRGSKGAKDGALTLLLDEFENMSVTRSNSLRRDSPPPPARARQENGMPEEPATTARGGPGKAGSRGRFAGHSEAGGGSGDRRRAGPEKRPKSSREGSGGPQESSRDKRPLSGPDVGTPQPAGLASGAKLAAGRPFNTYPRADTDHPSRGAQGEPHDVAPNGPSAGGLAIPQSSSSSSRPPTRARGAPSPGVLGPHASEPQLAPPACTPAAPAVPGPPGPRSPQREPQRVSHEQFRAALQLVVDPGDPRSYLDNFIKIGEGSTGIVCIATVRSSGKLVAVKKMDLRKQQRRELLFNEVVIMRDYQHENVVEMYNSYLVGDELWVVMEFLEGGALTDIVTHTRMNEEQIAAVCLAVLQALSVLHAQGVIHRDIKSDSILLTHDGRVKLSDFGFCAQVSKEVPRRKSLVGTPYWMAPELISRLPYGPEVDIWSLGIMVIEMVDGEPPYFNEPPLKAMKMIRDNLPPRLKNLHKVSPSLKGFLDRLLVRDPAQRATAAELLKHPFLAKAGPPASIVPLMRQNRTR
# Chain of PAK7 (Q9P286 whole entry): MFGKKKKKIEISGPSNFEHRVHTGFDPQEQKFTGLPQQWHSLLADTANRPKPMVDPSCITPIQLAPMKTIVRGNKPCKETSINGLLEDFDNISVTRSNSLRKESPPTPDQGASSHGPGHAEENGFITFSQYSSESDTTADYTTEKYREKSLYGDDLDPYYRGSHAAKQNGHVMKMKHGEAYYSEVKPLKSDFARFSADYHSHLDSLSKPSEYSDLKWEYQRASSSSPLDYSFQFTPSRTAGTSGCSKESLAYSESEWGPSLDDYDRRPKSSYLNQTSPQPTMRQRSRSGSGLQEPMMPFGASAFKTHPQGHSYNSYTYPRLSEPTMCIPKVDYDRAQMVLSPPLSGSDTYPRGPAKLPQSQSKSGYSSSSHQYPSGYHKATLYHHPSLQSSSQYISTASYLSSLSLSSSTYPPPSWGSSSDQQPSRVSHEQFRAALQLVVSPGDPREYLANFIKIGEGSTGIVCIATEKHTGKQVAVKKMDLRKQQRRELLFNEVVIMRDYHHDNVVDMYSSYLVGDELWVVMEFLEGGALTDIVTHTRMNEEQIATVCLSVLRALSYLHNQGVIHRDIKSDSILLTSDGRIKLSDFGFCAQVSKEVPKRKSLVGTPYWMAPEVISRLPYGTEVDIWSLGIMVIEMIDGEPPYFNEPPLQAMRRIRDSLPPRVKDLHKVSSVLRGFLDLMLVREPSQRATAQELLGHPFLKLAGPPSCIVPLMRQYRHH
Kd (PAK1; read-out: Kd) [µM],Kd (PAK4) [µM],Kd (PAK7) [µM],Kd (PAK2; read-out: Kd) [µM],Compound,Kd (PAK6) [µM],Kd (PAK1) [µM],Kd (PAK2) [µM]
< 5,≥ 10,≥ 10,≥ 10,CCOc1cc2ncc(C#N)c(Nc3ccc(F)c(Cl)c3)c2cc1NC(=O)/C=C/CN(C)C [EKB-569],≥ 10,,
,,,,Nc1nc(Nc2ccc(S(N)(=O)=O)cc2)nn1C(=O)c1c(F)cccc1F [JNJ-7706621],< 5,≥ 10,≥ 10
